{
  "source": "patent US8193173B2",
  "about": "“Liver function ameliorant” (Tokyo University of Agriculture and Technology TLO Co., Ltd., priority 2006, dated 2012)",
  "key": {"plasminogen [1]": {"target": "T1, plasminogen (Homo sapiens, UniProt P00747)", "T1 sequence (P00747 20-810 limits assumed, species assumed)": "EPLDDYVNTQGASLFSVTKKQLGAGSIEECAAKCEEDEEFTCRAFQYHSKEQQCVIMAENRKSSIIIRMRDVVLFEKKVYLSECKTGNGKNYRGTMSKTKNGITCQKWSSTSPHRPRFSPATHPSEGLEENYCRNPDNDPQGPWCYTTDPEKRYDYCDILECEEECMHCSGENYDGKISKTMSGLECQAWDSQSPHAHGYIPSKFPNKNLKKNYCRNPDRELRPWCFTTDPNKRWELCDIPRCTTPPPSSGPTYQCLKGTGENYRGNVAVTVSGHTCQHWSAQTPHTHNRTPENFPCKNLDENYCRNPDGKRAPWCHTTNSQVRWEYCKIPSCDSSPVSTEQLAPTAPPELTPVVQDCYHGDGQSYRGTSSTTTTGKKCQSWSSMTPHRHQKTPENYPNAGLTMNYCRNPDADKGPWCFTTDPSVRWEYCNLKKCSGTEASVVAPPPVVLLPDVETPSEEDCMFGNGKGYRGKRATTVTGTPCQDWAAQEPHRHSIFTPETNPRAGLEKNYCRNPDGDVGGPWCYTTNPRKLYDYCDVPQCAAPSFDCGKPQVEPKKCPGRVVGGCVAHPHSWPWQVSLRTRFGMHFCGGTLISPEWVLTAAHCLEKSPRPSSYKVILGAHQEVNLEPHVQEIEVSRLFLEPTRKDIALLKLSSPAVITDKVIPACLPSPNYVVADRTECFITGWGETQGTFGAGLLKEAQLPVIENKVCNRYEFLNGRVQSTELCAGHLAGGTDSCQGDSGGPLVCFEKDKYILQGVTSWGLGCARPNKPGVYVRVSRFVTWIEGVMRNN", "settings": "JP 2004-224737; cited from earlier work"}, "[2]": {"system": "pulmonary embolism model rats", "settings": "pulmonary embolism model rats in vivo; cited from earlier work"}, "plasminogen [3]": {"target": "T1, plasminogen", "settings": "cited from earlier work"}, "[4]": {"system": "chronic hepatitis model mice", "assay": "Liver function ameliorative effects in chronic hepatitis model mice (carbon tetrachloride); plasma AST, ALT, ChE", "type": "in vivo, ICR mice", "protocol": "Production of chronic hepatitis model mice was carried out according to a modified version of the method of Vogten et al. (J. Mathys Vogten et al., Int. J. Colorectal Dis. (2004), 19: 387-394).\nICR mice weighing about 30 g (age: 6 weeks, males, supplier: Sankyo Labo Service) were used in the experiment after preliminarily housing for 5 days while allowing free access to solid feed (Labo MR Stock) and distilled water. The animals were housed in an animal room set to conditions consisting of a temperature of 22±2° C., humidity of 60±5% and light-dark cycle of 12 hours.\nFollowing preliminary housing, the animals were intraperitoneally administered carbon tetrachloride (10% corn oil solution (v/v)) three times a week. The initially dose was 330 μl/kg, the second dose was […], and all subsequent doses were 500 μl/kg. This administration was carried out over the course of six weeks to produce chronic hepatitis model mice.\nAfter administering carbon tetrachloride for 6 weeks, the animals were divided into an orniplabin dose group and control group so as to be statistically equivalent (orniplabin dose group: 7 animals, control group: 6 animals). Orniplabin was continuously administered into the abdominal cavity at 10 mg/kg. The control group was continuously administered physiological saline into the abdominal cavity at 2 ml/kg. This procedure was carried out for 14 days.\nFollowing completion of administration, blood samples were collected from the vena cava into a syringe barrel containing anticoagulant in the form of 3.8% sodium citrate solution ( 1/10 volume of collected blood), and the resulting blood was centrifuged immediately for 20 minutes at 3000 rpm to collect the supernatant for use as blood samples.\nThe levels of AST ([…], GOT), ALT (alanine aminotransferase, GPT) and ChE (cholinesterase) were measured for the resulting blood samples (Hitachi Model 7180 Autoanalyzer)."}, "[5]": {"settings": "10 mg/kg into the abdominal cavity for 14 days, versus normal level"}},
  "data": [
    {"smiles": "CC(C)=CCC/C(C)=C/CCC1(C)Oc2c(c(O)cc3c2CN(CCCC(C(=O)O)N2Cc4c(cc(O)c5c4OC(C)(CC/C=C(\\C)CCC=C(C)C)C(O)C5)C2=O)C3=O)CC1O", "note": "(stereo not drawn) [orniplabin]", "values": [
      {"measurement": "plasminogen activation", "setting": "plasminogen [1]", "result": "promotes plasminogen activation"},
      {"measurement": "dissolution of pulmonary embolisms thrombus", "setting": "[2]", "result": "promotes dissolution of pulmonary embolisms thrombus"},
      {"measurement": "binding of plasminogen to fibrin", "setting": "plasminogen [3]", "result": "promotes binding of plasminogen to fibrin"},
      {"measurement": "plasma AST, orniplabin dose group as compared with the control group", "setting": "[4]; 10 mg/kg into the abdominal cavity for 14 days after 6 weeks carbon tetrachloride, FIG. 1", "result": "significant (P<0.01) decrease"},
      {"measurement": "plasma ALT, orniplabin dose group versus control group", "setting": "[4]; 10 mg/kg into the abdominal cavity for 14 days after 6 weeks carbon tetrachloride, FIG. 2", "result": "no significant differences observed"},
      {"measurement": "plasma ChE, orniplabin dose group as compared with the control group", "setting": "[4]; 10 mg/kg into the abdominal cavity for 14 days after 6 weeks carbon tetrachloride, FIG. 3", "result": "significant (P<0.01) increase"},
      {"measurement": "plasma ALT, orniplabin dose group as compared with the normal group", "setting": "[4]; 10 mg/kg into the abdominal cavity for 14 days, FIG. 2", "result": "increases were not observed"},
      {"measurement": "cholinesterase levels (protein synthesis ability of the liver)", "setting": "[4]; [5]", "result": "recovered to the same level as the normal level"},
      {"measurement": "degree of impaired liver function (AST and ALT)", "setting": "[4]; [5]", "result": "recover to nearly the normal level"}
    ]}
  ]
}
